Like-named read-outs stand apart in the source and are kept apart here.
Columns and labels:
Assay type in all cases: cell-based
[1] = test system: Propionibacterium acnes NCTC 737; experiment: Minimum Biocidal (Bactericidal) Concentration (MBC) assay; settings: P. acnes NCTC 737; for MBC: sub-culture on antibiotic-free agar after MIC assay
Method: (§1) The test micro-organism represented the cutaneous propionibacteria. […] The propionibacteria are clinically significant due to their involvement in acne. This is a very common, complex and multi-factorial skin disease in which P. acnes and other Propionibacterium spp. […] They are also opportunistic pathogens in compromised hosts.
(§2) The propionibacteria were cultured and maintained on Wilkins-Chalgren Anaerobe Medium (agar and broth) at pH 6.0; all cultures were incubated anaerobically at 37° C. for 72 hours.
This assay, normally carried out after an MIC assay, determines the minimum concentration of a compound that is lethal to the micro-organism being tested.
These samples were then individually sub-cultured on antibiotic-free agar medium, under the incubation conditions described above. Following incubation they were examined visually for microbial growth.
(§3) MIC, MBC and DDA assays, as described above, were carried out using as the test compound sodium n-tetradecyl sulphate (STS, ex Sigma Aldrich, UK), dissolved in distilled water. All the experiments were conducted in triplicate. For the DDA experiments, 200 μg of the test compound was loaded onto each disc.
(§4) The MIC/MBC experiments were conducted in triplicate, with the exception of those for SDS and ADS which were conducted in duplicate. The DDAs were performed either in triplicate, in which case standard deviations are quoted in parentheses, or as a single replicate. For the DDA experiments, 200 μg of the test compound was loaded onto each disc.

[2] = test system: Propionibacterium acnes NCTC 737; experiment: Disc Diffusion Assay (DDA); settings: P. acnes NCTC 737, 200 μg of test compound per disc; for zone of inhibition at 200 µg/disc: Cutibacterium acnes, NCTC737, read-out: DDA (diameter of zone of inhibition)
Method: as §1, §2
This is an internationally recognised standard method for qualitatively assessing the antimicrobial activity of a compound.
(§5) A sterile paper disc was impregnated with a sample of the test compound in a suitable solvent and 30 minutes allowed for the solvents to evaporate (where possible). The disc was then placed on an agar plate onto which the test micro-organism had been inoculated. The plate was then incubated under the conditions described above, following which it was examined visually for signs of microbial growth. […] The diameter of this zone of ‘inhibition’ was measured using a ProtoCOL™ automated zone sizer (Synbiosis, Cambridge, UK).
as §3, §4

[3] = test system: Propionibacterium acnes NCTC 737; experiment: Minimum Inhibitory Concentration (MIC) assay, broth microdilution; settings: for MIC: P. acnes NCTC 737, Wilkins-Chalgren broth pH 6.0, anaerobic, 37° C., 72 hours
Method: as §1, §2
This is a standard international method for quantitatively assessing the antimicrobial activity of a compound in a liquid medium. […] The culture media were as described above.
The wells were inoculated with a liquid suspension of freshly grown micro-organism and incubated under the conditions described above. After incubation, the microtitre plate was examined visually (with the aid of a light box) for cloudiness in each well, which would indicate microbial growth. The MIC value was recorded as the lowest concentration of test compound required to inhibit microbial growth, ie the lowest concentration for which the liquid in the well remained clear.
The assays included both negative (culture medium with no micro-organisms) and positive (culture medium plus diluting solvent plus micro-organism) controls.
as §3, §4

[4] = test system: Propionibacterium acnes NCTC 737; experiment: Supplemented Disc Diffusion Assay (agar with salt or lipid); settings: P. acnes NCTC 737, 200 μg per disc; for zone of inhibition at 200 µg/disc: Cutibacterium acnes, NCTC737, 72 h
Method: as §1, §2, §5
Performance under these conditions can provide a more reliable indication of activity on topical application.
as §3, §4

[5] = Cutibacterium acnes, NCTC737, read-out: MBC
[6] = Cutibacterium acnes, NCTC737, read-out: MIC
[7] = agar supplemented with sodium chloride (100 mM), read-out: DDA + salt
[8] = agar supplemented with triolein at 1% v/v, read-out: DDA + lipid
[9] = agar supplemented with sodium chloride (100 mM)
[10] = agar supplemented with triolein at 1% v/v

Row | Compound | MBC [1, 5] [µg/mL] | MIC/MBC ratio [1] | zone of inhibition at 200 µg/disc [2] [mm] | MIC [3, 6] [µg/mL] | zone of inhibition at 200 µg/disc [4, 7] [mm] | zone of inhibition at 200 µg/disc [4, 8] [mm] | MBC [1] [µg/mL] | DDA (diameter of zone of inhibition) [2] [mm] | MIC [3] [µg/mL] | DDA + salt [4, 9] [mm] | DDA + lipid [4, 10] [mm] | DDA (diameter of zone of inhibition) ([2]; sulphate) [mm] | antibacterial activity against P. acnes NCTC 737 (in words) ([3]; summary of MIC, MBC and DDA results) | DDA + salt ([4]; agar supplemented with sodium chloride (100 mM), sulphate) [mm] | DDA + lipid ([4]; agar supplemented with triolein at 1% v/v, sulphate) [mm]
1 | CCCCCCCCCCCCCCCS(=O)(=O)O.[Na] [Sodium 1-pentadecane sulphonic acid, sodium 1-pentadecane sulphonic acid] | 3.9 | 0.25 | 11.8 | 0.98 | 12.1 | 0 | – | – | – | – | – | – | – | – | –
2 | CCCS(=O)(=O)[O-].O.[Na+] [Sodium 1-propanesulphate monohydrate, sodium 1-propanesulphate monohydrate] | – | – | – | – | – | – | >250 | 0.00 | >250 | 0.00 | 0.00 | – | – | – | –
3 | CCCCCCCCCCCCCCS(=O)(=O)O.[Na] [Sodium 1-tetradecane sulphonic acid, sodium 1-tetradecane sulphonic acid] | 15.6 | 0.25 | 11.2 | 3.9 | 12.4 | 9.61 | – | – | – | – | – | – | – | – | –
4 | CCCCCCCCCCCCCS(=O)(=O)O.[Na] [Sodium 1-tridecane sulphonic acid, sodium 1-tridecane sulphonic acid] | 31.2 | 0.5 | 28.6 | 15.6 | 29.3 | 27.4 | – | – | – | – | – | – | – | – | –
5 | CCCCCCCCCCOS(=O)(=O)[O-].[Na+] [Sodium decyl sulphate, sodium decyl sulphate] | > 250 | <1 | 0 | 250 | 0 | 0 | – | – | – | – | – | – | – | – | –
6 | CCCCCCCCCCCCOS(=O)(=O)[O-].[Na+] [Sodium dodecyl sulphate (SDS), sodium dodecyl sulphate] | 62.5 | 0.5 | 30.7 | 31.2 | 28.2 | 28.2 | – | – | – | – | – | – | – | – | –
7 | CCCCCCCCCCCCCCCCOS(=O)(=O)[O-].[Na+] [Sodium hexadecyl sulphate, sodium hexadecyl sulphate] | 1.95 | 0.5 | 36.3 | 0.98 | 32.4 | 39.8 | – | – | – | – | – | – | – | – | –
8 | CCCCCCOS(=O)(=O)[O-].[Na+] [Sodium n-hexyl sulphate, sodium n-hexyl sulphate] | > 250 | – | 0 | > 250 | 0 | 0 | – | – | – | – | – | – | – | – | –
9 | CCCCCCCCCOS(=O)(=O)[O-].[Na+] [Sodium n-nonyl sulphate, sodium n-nonyl sulphate] | 250 | 1 | 0 | 250 | 0 | 0 | – | – | – | – | – | – | – | – | –
10 | CCCCCOS(=O)(=O)[O-].[Na+] [Sodium n-pentyl sulphate, sodium n-pentyl sulphate] | > 250 | – | 0 | > 250 | 0 | 0 | – | – | – | – | – | – | – | – | –
11 | CCCCCCCCCCCCCCOS(=O)(=O)O [Sodium n-tetradecyl sulphate, sodium n-tetradecyl sulphate] | 0.98 | 1 | 29.9 | 0.98 | 31.6 | 33.7 | – | – | – | – | – | 29.87 | highly active | 31.62 | 33.67
12 | CCCCCCCCCCCOS(=O)(=O)[O-].[Na+] [Sodium n-undecyl sulphate, sodium n-undecyl sulphate] | 62.5 | 0.5 | 17.3 | 31.2 | 19.9 | 17.7 | – | – | – | – | – | – | – | – | –
13 | CCCCCCCCCCCCCCCCCCOS(=O)(=O)[O-].[Na+] [Sodium octadecyl sulphate, sodium octadecyl sulphate] | 62.5 | 0.03 | 9.41 | 1.95 | 9.3 | 9.92 | – | – | – | – | – | – | – | – | –
14 | CCCCCCCCOS(=O)(=O)[O-].[Na+] [Sodium octyl sulphate, sodium octyl sulphate] | > 250 | – | 0 | > 250 | 0 | 0 | – | – | – | – | – | – | – | – | –
15 | CCCCCS(=O)(=O)[O-].[Na+] [Sodium pentane sulphonate, sodium pentane sulphonate] | > 250 | – | 0 | > 250 | 0 | 0 | – | – | – | – | – | – | – | – | –
16 | CCCCCCCCCCCCCOS(=O)(=O)[O-].[Na+] [Sodium tridecyl sulphate, sodium tridecyl sulphate] | 7.8 | 1 | 32.2 | 7.8 | 33.3 | 31.8 | – | – | – | – | – | – | – | – | –
17 | CCCCCCCOS(=O)(=O)[O-].[Na+] [Sodium-n-heptyl sulphate, sodium-n-heptyl sulphate] | > 250 | – | 0 | > 250 | 0 | 0 | – | – | – | – | – | – | – | – | –
18 | CCCCCCCCCCCCOS(=O)(=O)O.NC(CO)(CO)CO [Trizma ® dodecyl sulphate, Trizma® (2-amino-2-(hydroxymethyl)-1,3-propanediol, alsoknownas ‘Tris’) dodecyl sulphate] | – | 0.5 | – | – | – | – | 62.5 | 0.00 | 31.25 | 0.00 | 0.00 | – | – | – | –
19 | triethanolamine lauryl sulphate [Triethanolamine dodecyl sulphate] | – | 0.25 | – | – | – | – | 15.6 | 30.19 | 3.9 | 28.33 | 25.53 | – | – | – | –

— patent publication US20110054039A1, “USE OF ALKYL SULFATES OR SULFONATES AGAINST PROPIONIBACTERIUM ACNES” (priority 2008, published 2011)
